Assay results as given in patent publication US5880146A, “Inhibition of IL-12-induced IFN-γ synthesis by specific bis-phenol compounds as a method of immune modulation” (Fuji ImmunoPharmaceuticals Corporation, priority 1995, dated 1999).

Columns and labels:
[1] = Cell viability (MTS) after treatment with bis-compound; type: cell-based; conditions: human, pha-activated pbmc, 5 μg/ml
Description: Human peripheral blood monocytes (PBMC) were obtained from commercial sources as a leukophoresis from a healthy volunteer and were purified by centrifugation on a Ficoll-Hypaque (Pharmacia) gradient (1700 rpm for 20 min). The "buffy" coat containing the PBMC was diluted with serum-free culture medium (SF-RPMI) to a volume of 50 ml and collected by centrifugation at 1500 rpm for 5 min. Cells were resuspended in cell culture medium containing 10% fetal bovine serum (RPMI-10) and phytohemaglutinin (PHA - 10 μg/ml) at a density of 5×10^6 cells/ml and were cultured for 3 days at 37° C. in a humidified CO2 incubator. The PHA-activated cells were collected by centrifugation, washed three times with an equal volume of SF-RPMI and resuspended in fresh RPMI-10 (1×10^6 cells /ml). Aliquots (100 μl) were dispensed into the wells of multiple 96-well plates to give a final cell number of 10^5 per well. Test compounds, dissolved in dimethyl sulfoxide (DMSO) at 1 mg/ml, were first diluted in culture medium to an intermediate concentration of 20 μg/ml and then were added (50 μwell) to a specific well of the plate for each compound. Stimulation medium (50 μl/well) containing 10% serum, IL-2 and IL-12 was added to final concentrations of 25 U/ml and 0.5 ng/ml, respectively. Control wells receive no IL-2 or IL-12 (negative control) or received both interleukins but no test compound (positive control). The plates were incubated for 48 hr at 37° C. in a CO2 incubator at which time aliquots (20 μl) were removed for analysis of IFN-γ concentration by ELISA. A quantitative ELISA was developed by coating 96-well plates with an mouse monoclonal antibody against human IFN-γ, 1 μg/ml in phosphate buffered saline (PBS) (Pestka Biological Laboratories), overnight at 4° C. Unbound antibody was washed off by washing three times with PBS. Non-specific antibody binding was blocked with a solution of 1% bovine serum albumin (BSA) and 1% goat serum in PBS (150 μl/well) which was incubated for 2 hr at 37° C. After washing the blocked plates four times with PBS, test samples and dilutions of the IFN-γ standard are added in a final volume of 100 μl/well. Following an overnight incubation at 4° C., the plates are washed four times with PBS, and a polyclonal rabbit antiserum against human IFN-γ (1/10000 dilution--Petska Biological Laboratories) is added. After an additional incubation for 1 hr at 37° C. and four washes with PBS, a polyclonal donkey anti-rabbit detecting antibody, conjugated to horseradish peroxidase (1/700 dilution--Petska Biological Laboratories) is added for 1 hr at 37° C. The plates are then washed four times with PBS and 100 μl of K-blue substrate E(ILISA Technologies, Neogen Corp.) is added until the color in the wells containing the standard curve is sufficiently developed, at which time 100 μl of "Red-stop" solution (ELISA Technologies) is added. The absorbance of the solution within each well of the plate is then read at 650 nm using an ELISA plate reader (Dynatech MR7000). The amount of IFN-γ is calculated by comparing the optical density of the test sample with a standard curve derived from the dilutions of the control IFN-y. […] MTS is a chemical chromophore that is metabolized in the mitochondria of viable cells to produce a color which increases in intensity in proportion to the numbers of viable cells. The absorbance of the cell culture can be compared to control cultures in order to determine the percent viability.

[2] = system: T cell response of human PBMC to allogenic stimulation by Namalwa cells; assay: Mixed Lymphocyte Reaction (proliferation and IFN-γ secretion); type: cell-based; conditions: 6 days; FIGS. 1-3
Description: This reaction measures the T cell response to allogenic stimulation by a mismatch of class II histocompatability antigens. This is triggered through the T cell receptor and activates the T cell to secrete and proliferate in response to endogenous IL-2. IFN-γ is also made in response to this stimulation and accumulates in the culture medium. Compounds are tested for their ability to block the proliferation and response to antigenic stimulation as well as their ability to produce IFN-γ as follows. A human B cell ine expressing class II antigen, Namalwa (American Type Culture Collection), is incubated for 2 hr at 37° C. in RPMI-10 containing mitomycin C (50 μg/ml). These cells are washed four times by centrifugation and resuspension (10^6 cells/ml) in SF-RPMI medium and are added to the wells of 96-well plate (50 μl/well) as stimulators. Mitomycin treatment prevents these cells from proliferating in the assay. Fresh PBMC are prepared as described above in example 1, but are not activated with PHA. Instead they are resuspended at 10^6 cells/ml and 100 μl is added per well. Dilutions of test compounds are added (50 μl/well) to give a final volume of 200 μl and the plates are incubated for 6 days at 37° C. During the last 18 hr, ^3 H-thymidine (DuPont-NEN- 1 μCi/well) is added as a measure of cell proliferation, cultures are collected using a cell harvester (Packard), and scintillation fluid is added prior to counting in a Packard Top Count scintillation counter. A sample of medium is also collected for measurement of IFN-γ production prior to the addition of ^3 H-thymidine for use as a negative control.

[3] = Toxicity of bis-compounds after single systemic dose; type: in vivo; conditions: mouse, in vivo, iv, 20% DMSO, 16% cremaphor, single dose
mice = assay: as above; type: in vivo; conditions: 20% DMSO, 16% cremaphor

## CCCCCCCC(c1cc(C)cc(C)c1O)c1cc(C)cc(C)c1O [Compound 51852]
[1]
  viability: 105%
[2]
  inhibition of IFN-γ secretion versus cell proliferation (in words): more potent inhibitors of secretion at concentrations that do not effect cell proliferation

## Cc1cc(C)c(O)c(C(CC(C)CC(C)(C)C)c2cc(C)cc(C)c2O)c1 (stereo not shown) [Compound 51853, bis-1,1-[2-hydroxy-3,5-dimethylphenyl]-3,5,5-dimethyl hexan]
[1]
  viability: 104%
[2]
  inhibition of IFN-γ secretion versus cell proliferation (in words): more potent inhibitors of secretion at concentrations that do not effect cell proliferation
[3]; conc. sol. 10 mg/ml
  LD50: 100 to 150 mg/kg
[3]; conc. sol. 15 mg/ml
  LD50: > 200 mg/kg
mice; 100 mg/kg IV, 10 mg/ml
  Results (Dead/Alive): Alive
mice; 150 mg/kg IV, 10 mg/ml
  Results (Dead/Alive): Dead
mice; 150 mg/kg IV, 15 mg/ml
  Results (Dead/Alive): Alive
mice; 200 mg/kg IV, 15 mg/ml
  Results (Dead/Alive): Alive
